Test results published in paper PMC10361207, “Cannabinoid and Opioid Receptor Affinity and Modulation of Cancer-Related Signaling Pathways of Machaeriols and Machaeridiols from Machaerium Pers” (Molecules, 2023).
Like-named read-outs stand apart in the source and are kept apart here.

Assays:
δ opioid receptor = molecular target: T1, δ opioid receptor (Homo sapiens, UniProt P41143); assay: Competitive radioligand binding assay, δ opioid; conditions: for inhibition at 10 µM: [3H]-enkephalin (DPDPE), read-out: Percent displacement, Δ
T1 construct: host or cells: HEK293, stably transfected; membranes
Method: HEK293 cells stably transfected with δ, κ and μ opioid subtypes were a generous gift from Roth Laboratories (University of North Carolina at Chapel Hill, N.C., USA). CB and opioid cells were maintained as previously described.
Membranes were purified by first washing the cells with cold PBS and scraping the cells into cold 50 mM Tris-HCl, pH 7.4 buffer, which was centrifuged at 5200× g for 10 min at 4 °C; next, the supernatant was discarded, and the pellet was washed with more Tris-HCl buffer, homogenized via a Sonic Dismembrator (Fisher Scientific, Pittsburgh, PA, USA) and then centrifuged at 24,000× g for 40 min at 4 °C. Finally, the pellet was re-suspended in cold 50 mM Tris-HCl buffer, aliquoted into 2 mL vials and stored at −80 °C. The total membrane protein concentration was measured using a Pierce BCA Protein Assay Kit (Thermo Scientific, Rockford, IL, USA) as per the manufacturer’s protocol.
Cannabinoid and opioid competitive radioligand binding assays were performed as previously described. Saturation experiments were performed for all the receptors to determine the receptor concentration and radioligand dissociation constant (Kd) for the membrane. Percent displacements were evaluated for all the cannabinoid and opioid subtypes with a triplicate of a fixed concentration (10 µg/mL for extracts and fractions and 10 μM for purified compounds). […] Control/test compounds were dissolved in DMSO at 10 μg/mL for extracts and fractions and 10 μM for purified compounds. […] The percent displacement was calculated to represent the ability of the samples to displace the radioligand binding for a given cannabinoid or opioid receptor subtype.
The percent displacement was calculated as follows: 100−binding of compound−nonspecific binding/specific binding×100
The competitive binding assays were performed using 12 serial dilutions of each compound ranging from 0.002 to 300 μM (control compounds were serially diluted from 10 μM to 0.06 nM). The cannabinoid assays were incubated for 90 min at 37 °C with gentle agitation. The opioid assays were incubated for 60 min at room temperature. Bound radioligands were collected on GF/C (cannabinoid) or GF/B plates (opioid) and washed 10 times with ice-cold 50 mM Tris-HCl (pH 7.4)/0.1% BSA (cannabinoid) or ice-cold 50 mM Tris-HCl (pH 7.4) (opioid). Radiodetection was measured with 50 µL (cannabinoid) or 25 µL (opioid) of MicroScint^TM-20 on a TopCount NXT HTS Microplate Scintillation Counter (PerkinElmer, Waltham, MA, USA). The IC50 and Ki values were calculated via a non-linear curve fit model using GraphPad Prism 5.0 software (GraphPad Software, Inc., San Diego, CA, USA). Each compound was tested in triplicate unless stated otherwise.

[1] = Cytotoxicity, Neutral Red, SK-OV-3; assay type: cell-based; conditions: human, SK-OV-3 ovary carcinoma cells, Na = not active up to 50 µg/mL
Method: In vitro cytotoxic activity was determined against five human cancer cell lines—malignant melanoma (SK-MEL), epidermal carcinoma oral (KB), ductal carcinoma breast (BT-549), ovary carcinoma (SKOV-3) and cervical (HeLa) cancer cells—and two non-cancerous kidney cell lines (LLC-PK1 and Vero). All cell lines were obtained from the American Type Culture Collection (ATCC, Rockville, MD, USA). Each assay was performed in 96-well tissue culture-treated microplates. The cells were seeded at a density of 25,000 cells/well and incubated for 24 h. Samples at different concentrations were added, and the cells were incubated again for 48 h. At the end of the incubation, the cell viability was determined using Neutral Red dye according to a modification of the procedure used by Borenfreund et al.. IC50 values were determined from dose–response curves of the percent growth inhibition against test concentrations. Doxorubicin was used as a positive control, while DMSO was used as the negative (vehicle) control.

NF-κB = assay: Luciferase reporter assay, NF-κB, HeLa; assay type: cell-based; conditions: Homo sapiens; for IC50: HeLa cells, inducer PMA, dash: not inhibited by more than 40% at 50 µmol/L
Method: (§1) Hela cells (or T98G cells) from ATCC were plated in white opaque 384-well plates at a density of 4300 cells/well in 30 µL of growth medium (DMEM with 10% FBS and 1% Pen/Strep). The next day, the medium was aspirated and replaced with DMEM containing 1% FBS. The cells were transfected with respective plasmids using X-tremeGENE HP DNA transfection reagent (Roche). After 24 h of transfection, the test agents were added to the transfected cells, followed 30 min later by an inducing agent: interleukin 6 (IL-6) for Stat3, TGF-β for Smad, m-wnt3a for Wnt and PMA for AP-1, NF-κB, E2F, Myc, ETS, Notch and Hedgehog. No inducer was added for FoXO and pTK. After 4 h or 6 h of induction, the cells were lysed via the addition of the One-Glo luciferase assay system (Promega; Madison, WI). The light output was detected in a GloMax®-Multi+ Detection System with Instinct® Software (Promega E 8051). This luciferase assay determines if the test agent is able to inhibit the activation of cancer-related signaling pathways. In the case of FoxO, the enhanced luciferase activity via the test agent was assessed.

E2F = assay: Luciferase reporter assay, E2F, HeLa; assay type: cell-based, human; conditions: Homo sapiens, HeLa; for IC50: read-out: IC50, E2F (PMA)
Method: as §1

Myc = assay: Luciferase reporter assay, Myc, HeLa; assay type: cell-based; conditions: Homo sapiens; for IC50: HeLa cells, inducer PMA, dash: not inhibited by more than 40% at 50 µmol/L
Method: as §1

ETS = assay: Luciferase reporter assay, ETS, HeLa; assay type: cell-based, human
Method: as §1

Notch = assay: Luciferase reporter assay, Notch, HeLa; assay type: cell-based; conditions: Homo sapiens; for IC50: HeLa cells, inducer PMA, dash: not inhibited by more than 40% at 50 µmol/L
Method: as §1

Wnt = assay: Luciferase reporter assay, Wnt, HeLa; assay type: cell-based; conditions: Homo sapiens; for IC50: HeLa cells, inducer m-wnt3a, dash: not inhibited by more than 40% at 50 µmol/L
Method: as §1

[2] = tested on: minimal thymidine kinase promoter (pTK); assay: Luciferase control vector pTK, HeLa; assay type: cell-based, human; conditions: HeLa cells; up to 50 µM; no inducer
Method: as §1

[3] = Solubility in aqueous assay buffer; conditions: aqueous buffer of the radioligand binding assay
[4] = read-out: Additive effect (in % inhibition): percentage of luciferase induction, E2f (PMA)
[5] = Homo sapiens, HeLa cells, inducer PMA, dash: not inhibited by more than 40% at 50 µmol/L

T1 sequence (P41143 whole entry): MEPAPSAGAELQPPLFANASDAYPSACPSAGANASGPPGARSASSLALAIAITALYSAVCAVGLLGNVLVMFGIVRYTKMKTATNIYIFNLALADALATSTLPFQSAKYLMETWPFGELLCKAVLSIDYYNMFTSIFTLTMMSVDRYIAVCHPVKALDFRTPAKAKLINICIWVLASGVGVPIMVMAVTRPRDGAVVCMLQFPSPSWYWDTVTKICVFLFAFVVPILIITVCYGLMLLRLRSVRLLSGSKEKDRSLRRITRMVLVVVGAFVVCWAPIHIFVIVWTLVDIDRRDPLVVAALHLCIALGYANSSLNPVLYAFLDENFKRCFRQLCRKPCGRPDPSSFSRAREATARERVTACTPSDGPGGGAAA

C=C(C)[C@H]1CC[C@H](C)C[C@@H]1c1c(O)cc(/C=C/c2ccccc2O)cc1O [compound 6, machaeridiol B]
inhibition at 10 µM (δ opioid receptor): 50.2%
Ki (δ opioid receptor; NA = not active, read-out: Δ Ki ± SEM): 6.54 ± 0.77 µM
Ki (δ opioid receptor; read-out: Δ pKi (converted)): 6.46 µM
IC50 at 48 h [1]: > 50 mg/L
inhibition at 2 µM (NF-κB; HeLa, 6 alone at 2 µM, compared to pTK as control, read-out: Additive effect (in % inhibition): percentage of luciferase induction, NF-κB (PMA)): 76%
IC50 (NF-κB): 0.5 µM
inhibition at 2 µM (E2F; [4]): 80%
IC50 (E2F): 5.7 µM
inhibition at 2 µM (Myc; HeLa, 6 alone at 2 µM, compared to pTK as control, read-out: Additive effect (in % inhibition): percentage of luciferase induction, Myc (PMA)): 111%
IC50 (Myc): 5.3 µM
IC50, ETS (PMA) (ETS; HeLa cells, inducer PMA, dash: not inhibited by more than 40% at 50 µmol/L): inactive
inhibition at 2 µM (ETS; Homo sapiens, HeLa, 6 alone at 2 µM, compared to pTK as control, read-out: Additive effect (in % inhibition): percentage of luciferase induction, ETS (PMA)): 107%
IC50 (ETS; [5]): > 50 µM
inhibition at 2 µM (Notch; HeLa, 6 alone at 2 µM, compared to pTK as control, read-out: Additive effect (in % inhibition): percentage of luciferase induction, Notch- (PMA)): 103%
IC50 (Notch): 5.3 µM
inhibition at 2 µM (Wnt; HeLa, 6 alone at 2 µM, compared to pTK as control, read-out: Additive effect (in % inhibition): percentage of luciferase induction, Wnt (m-wnt3a)): 113%
IC50 (Wnt): 4.2 µM
Inhibition of luciferase expression driven by pTK [2]: no inhibition
solubility [3]: < 33.3 µM

C[C@H]1CC[C@H]2[C@H](C1)c1c(O)cc(/C=C/c3ccccc3O)cc1OC2(C)C [compound 3, machaeriol C]
inhibition at 10 µM (δ opioid receptor): 4.6%
Ki (δ opioid receptor; Δ Ki ± SEM, NA = not active): 17.1 ± 2.61 µM
IC50 at 48 h [1]: > 50 mg/L
inhibition at 10 µM (NF-κB; HeLa, 3 alone at 10 µM, compared to pTK as control, read-out: Additive effect (in % inhibition): percentage of luciferase induction, NF-κB (PMA)): 70%
IC50 (NF-κB): 11 µM
inhibition at 10 µM (E2F; [4]): 50%
IC50 (E2F): 14 µM
inhibition at 10 µM (Myc; HeLa, 3 alone at 10 µM, compared to pTK as control, read-out: Additive effect (in % inhibition): percentage of luciferase induction, Myc (PMA)): 52%
IC50 (Myc): 10 µM
inhibition at 10 µM (ETS; Homo sapiens, HeLa, 3 alone at 10 µM, compared to pTK as control, read-out: Additive effect (in % inhibition): percentage of luciferase induction, ETS (PMA)): 66%
IC50 (ETS; [5]): 15 µM
inhibition at 10 µM (Notch; HeLa, 3 alone at 10 µM, compared to pTK as control, read-out: Additive effect (in % inhibition): percentage of luciferase induction, Notch- (PMA)): 115%
IC50 (Notch): > 50 µM
inhibition at 10 µM (Wnt; HeLa, 3 alone at 10 µM, compared to pTK as control, read-out: Additive effect (in % inhibition): percentage of luciferase induction, Wnt (m-wnt3a)): 81%
IC50 (Wnt): 22 µM
Inhibition of luciferase expression driven by pTK [2]: no inhibition
solubility [3]: < 33.3 µM
